Test results as given in ChEMBL document CHEMBL5528080, “Discovery of RORγ Allosteric Fluorescent Probes and Their Application: Fluorescence Polarization, Screening, and Bioimaging” (J Med Chem, 2024).

How the values were obtained:
Test in all cases: biochemical
[1] = target: T1, Nuclear receptor ROR-gamma (Homo sapiens, UniProt P51449)
T1 sequence (P51449 whole entry): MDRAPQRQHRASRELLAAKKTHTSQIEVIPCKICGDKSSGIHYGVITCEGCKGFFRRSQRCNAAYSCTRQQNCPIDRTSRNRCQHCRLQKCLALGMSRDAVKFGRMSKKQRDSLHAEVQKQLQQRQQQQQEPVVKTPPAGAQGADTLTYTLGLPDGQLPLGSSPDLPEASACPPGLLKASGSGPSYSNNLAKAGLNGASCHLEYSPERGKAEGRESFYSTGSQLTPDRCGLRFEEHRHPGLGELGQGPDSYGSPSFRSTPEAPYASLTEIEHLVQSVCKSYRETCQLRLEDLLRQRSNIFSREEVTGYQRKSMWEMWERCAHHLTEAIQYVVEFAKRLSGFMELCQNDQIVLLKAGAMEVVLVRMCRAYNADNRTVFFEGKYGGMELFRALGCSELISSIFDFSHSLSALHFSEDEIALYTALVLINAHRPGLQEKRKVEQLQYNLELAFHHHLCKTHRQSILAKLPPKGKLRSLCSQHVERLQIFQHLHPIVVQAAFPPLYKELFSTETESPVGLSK
Description: Allosteric inhibition of N-terminal his6-tagged human recombinant RORgamma LBD (261 to 518 residues) expressed in Sf9 insect cells incubated for 30 mins by fluorescence polarization assay

[2] = target: T1, Nuclear receptor ROR-gamma; remark: listed apart in the source
Description: Allosteric inhibition of N-terminal his6-tagged human recombinant RORgamma LBD (261 to 518 residues) expressed in Sf9 insect cells assessed as inhibition constant incubated for 30 mins by fluorescence polarization assay

[3] = target: T1, Nuclear receptor ROR-gamma; remark: listed apart in the source
Description: Binding affinity to N-terminal his6-tagged human recombinant RORgamma LBD (261 to 518 residues) expressed in Sf9 insect cells assessed as dissociation constant by SPR analysis

[4] = target: T1, Nuclear receptor ROR-gamma; remark: listed apart in the source
Description: Binding affinity to N-terminal his6-tagged human recombinant RORgamma LBD (261 to 518 residues) expressed in Sf9 insect cells assessed as dissociation constant incubated for 30 mins by fluorescence polarization assay

Compound `Cc1ccccc1C(=O)c1cn(-c2ccc(C(=O)O)s2)c2ccccc12` has an IC50 [1] of 33 µM and a Ki [2] of 17.6 µM.
Compound `O=C(O)c1ccc(-n2cc(C(=O)c3c(Cl)cccc3Cl)c3ccccc32)s1` has an IC50 [1] of 0.95 µM and a Ki [2] of 0.51 µM.
Work on `O=C(O)c1ccc(-n2cc(C(=O)c3ccccc3Cl)c3ccccc32)s1` yielded an IC50 [1] of 13.5 µM and a Ki [2] of 7.2 µM.
Work on `O=C(O)c1ccc(-c2nn(C(=O)c3ccccc3)c3ccccc23)cc1` yielded a Ki [2] of 1.11 µM.
`O=C(O)c1ccc(-n2cc(C(=O)c3c(Cl)cccc3C(F)(F)F)c3ccccc32)s1` gave an IC50 [1] of 1.7 µM and a Ki [2] of 0.91 µM.
For `O=C(O)c1ccc(-c2nn(C(=O)c3c(Cl)cccc3C(F)(F)F)c3cc(C(=O)NCCOCCOCCNC(=S)Nc4ccc5c(c4)C(=O)OC54c5ccc(O)cc5Oc5cc(O)ccc54)ccc23)cc1`, the Kd [3] was 0.28 µM and the Kd [4] was 0.0517 µM.
With `O=C(O)c1ccc(-n2cc(C(=O)c3cccc(Cl)c3)c3ccccc32)s1` the IC50 [1] was 28.5 µM and the Ki [2] was 15.2 µM.
Compound `Cc1cc(-n2cc(C(=O)c3c(Cl)cccc3Cl)c3ccccc32)sc1C(=O)O` has an IC50 [1] of 3.1 µM and a Ki [2] of 1.7 µM.
`O=C(O)c1ccc(-n2cc(C(=O)c3c(Cl)cccc3Cl)c3ccccc32)cc1` was tested, and the IC50 [1] was 0.009 µM and the Ki [2] was 0.005 µM.
Compound `O=C(O)c1ccc(-n2cc(C(=O)c3ccc(Cl)cc3)c3ccccc32)s1` has an IC50 [1] of 39.9 µM and a Ki [2] of 21.3 µM.
Work on `Cc1cccc(C(=O)c2cn(-c3ccc(C(=O)O)s3)c3ccccc23)c1` yielded an IC50 [1] of 149 µM and a Ki [2] of 79.8 µM.
`O=C(O)c1ccc(-n2cc(C(=O)c3ccccc3)c3ccccc32)s1` was tested, and the IC50 [1] was 19.3 µM and the Ki [2] was 102 µM.
For `Cc1ccc(C(=O)c2cn(-c3ccc(C(=O)O)s3)c3ccccc23)cc1`, the IC50 [1] was 79.9 µM and the Ki [2] was 42.7 µM.
`Cc1csc(-n2cc(C(=O)c3c(Cl)cccc3Cl)c3ccccc32)c1` was tested, and the IC50 [1] was > 1000 µM.
